{
  "source": "paper PMC9571290",
  "about": "“Preliminary Structure–Activity Relationship Study of the MMV Pathogen Box Compound MMV675968 (2,4-Diaminoquinazoline) Unveils Novel Inhibitors of Trypanosoma brucei brucei” (Molecules, 2022)",
  "key": {"[1]": {"test_system": "bloodstream forms of Trypanosoma brucei brucei", "assay": "resazurin-based antitrypanosomal inhibition assay", "type": "cell-based", "method": "Parasites were axenically cultivated in sterile vented flasks containing complete Hirumi’s modified Iscove’s medium 9 (HMI-9) [500 mL IMDM (Iscove’s modified Dulbecco’s medium) (Gibco, Waltham, MA, USA) supplemented with 10% (v/v) heat-inactivated fetal bovine serum (HIFBS) (Sigma Aldrich), 10% (v/v) serum plus (Sigma Aldrich), HMI-9 supplement (1 mM hypoxanthine, 0.16 mM thymidine, 50 µM bathocuproine disulfonic acid, 1.5 mM cysteine, 1.25 Mm pyruvic acid, 0.2 mM 2-mercaptoethanol (Sigma Aldrich)), and 1% (v/v) penicillin–streptomycin (Sigma Aldrich) and incubated at 37 °C in a 5% CO2 atmosphere.\nThe in vitro inhibitory potency of the 400 MMVPB compounds against bloodstream forms of Trypanosoma brucei brucei was evaluated using the resazurin-based inhibition assay as previously described. Briefly, parasites at their mid-logarithmic growth phase were counted, and the cell density was adjusted with fresh complete HMI-9 medium to 2 × 10^5 trypanosomes per mL. Then, 90 µL of parasite suspension was then distributed into the wells of 96-well flat-bottomed plates containing 10 µL of compounds for a final test concentration of 10 µM. […] Each assay plate was set up in duplicate and repeated two times. The percent parasite inhibition was determined for each compound based on fluorescence readouts relative to the mean fluorescence of negative control wells.\ny = 100/[1+ 10^(logIC50/99-x)H], where H is the hill coefficient or slope factor [60]."}, "in vitro": {"assay": "in vitro", "details": "African green monkey", "method": "(§1) The resulting pellet was resuspended and counted in a Neubauer chamber in the presence of trypan blue to exclude nonviable cells colored in blue. Once the cell load was estimated, they were either used for the next passage in a new flask or processed for the cytotoxicity assay.\n(§2) Briefly, Vero cells at a density of 10^4 cells per well were plated in 100 µL of complete DMEM and incubated overnight to allow cell attachment. Plates were then controlled under an inverted fluorescence microscope (Lumascope LS520) to ensure adherence, sterility and cell integrity. Thereafter, culture medium from each well was carefully emptied, and plates were filled with 90 µL of fresh complete medium followed by the addition of 10 µL of serial 5-fold dilutions of compound solutions. […] Fluorescence was then read using a Magelan Infinite M200 fluorescence multiwell plate reader (Tecan) with excitation and emission wavelengths of 530 and 590 nm, respectively. The percentage of cell viability was calculated from readouts, and the median cytotoxic concentration (CC50) for each compound was deduced from concentration–response curves using GraphPad Prism 8.0 software as described above. Selectivity indexes were then determined for each test substance as follows: SI = CC50(Vero cells)/IC50(T. brucei brucei)."}, "DHFR [2]": {"test_system": "DHFR", "parameters": "method as in PMID 7799402", "details": "read-out: IC50 DHFR Pneumocystis carinii; cited from earlier work"}, "DHFR [3]": {"test_system": "DHFR", "parameters": "method as in PMID 7799402", "details": "read-out: IC50 DHFR Toxoplasma gondii; cited from earlier work"}, "[4]": {"test_system": "Cryptosporidium parvum-I DHFR", "parameters": "method as in PMID 11709300", "details": "in vitro; cited from earlier work"}, "Cryptosporidium parvum": {"test_system": "Cryptosporidium parvum", "parameters": "method as in PMID 11709300", "details": "read-out: IC50 phenotypic whole parasite testing; cited from earlier work"}, "Toxoplasma gondii": {"test_system": "Toxoplasma gondii", "parameters": "method as in PMID 29133550", "details": "read-out: IC50 against Toxoplasma gondii; cited from earlier work"}, "P. falciparum": {"test_system": "P. falciparum", "parameters": "method as in PMID 28674055", "details": "cited from earlier work"}, "Vero cells": {"test_system": "Vero cells", "assay": "cytotoxicity against Vero cells (resazurin viability assay)", "details": "read-out: CC50 Vero; Table 2", "method": "as §1, §2"}, "[5]": {"test_system": "kinetoplastids (T. brucei brucei and T. brucei rhodesiense)", "parameters": "method as in MMV Pathogen Box supporting information", "details": "against kinetoplastids; ref MMV Pathogen Box supporting information; read-out: Reported IC50; cited from earlier work"}, "T. b. brucei": {"test_system": "T. b. brucei", "parameters": "method as in Duffy et al., 13", "details": "ref Duffy et al., 13; read-out: IC50 against T. b. brucei; cited from earlier work"}, "[6]": {"assay": "ferric ion reducing antioxidant power (FRAP)", "details": "Fe^3+-reducing activity", "method": "Iron is one of the vital elements for all parasites, including trypanosomes, as it plays a key role in pathogenesis and the host immune response. Therefore, iron bioavailability reducing agents to the parasite could be potential candidates for drug development against trypanosomiasis. To this end, we determined the capacity of the test compounds to reduce iron from ferric to ferrous status using the method described by Benzie et al.. Briefly, 25 µL of each compound (7 and 10) was added to 25 µL of a solution of Fe^3+ prepared at 1.2 mg/mL in distilled water in a 96-well microplate. The plate was incubated for 15 min at room temperature in darkness, after which 50 µL of ortho-phenanthroline (0.2% in methanol) was added to achieve final compound concentrations ranging from 400 µM to 0.19 µM. Plates were reincubated for 15 min, and the absorbance was measured at 510 nm. Ascorbic acid was used as a positive control and tested at concentrations ranging from 100 to 0.048 μg/mL. The median reducing concentration (RC50) values of compounds were determined through sigmoidal concentration–response curves using GraphPad Prism version 8.0 software."}},
  "note": "Like-named read-outs stand apart in the source and are kept apart here.",
  "data": [
    {"compound": "COc1ccc(OC)c(NCc2ccc3nc(N)nc(N)c3c2Cl)c1", "note": "[Analog 1, 2,4-diamino-5-chloro-6-[(2,5-dimethoxyanilino)methyl]quinazoline]", "values": [
      {"measurement": "IC50", "setting": "[1]; Table 4, analogs of MMV675968, solid material, read-out: IC50 ± SD T. b. b.", "value": 2600, "unit": "nM"},
      {"measurement": "IC50", "setting": "[1]; Trypanosoma brucei, Table 3, MMVPB compounds with known potency against other diseases, read-out: IC50 ± SD T. b. b.", "value": "2800 ± 70", "unit": "nM"},
      {"measurement": "IC50", "setting": "[1]; Trypanosoma brucei, Table 3, negative log of IC50 in molar, read-out: pIC50 T. b. b. (converted)", "value": 2820, "unit": "nM"},
      {"measurement": "IC50", "setting": "[1]; Trypanosoma brucei, Table 4, analogs of MMV675968, solid material, read-out: IC50 ± SD T. b. b.", "value": "2600 to 2800", "unit": "nM"},
      {"measurement": "IC50", "setting": "[1]; Trypanosoma brucei, Table 4, negative log of IC50 in molar, read-out: pIC50 T. b. b. (converted)", "value": 2630, "unit": "nM"},
      {"measurement": "CC50 at 48 h", "setting": "in vitro", "value": "> 100000", "unit": "nM"},
      {"measurement": "IC50", "setting": "DHFR [2]", "value": 51, "unit": "nM"},
      {"measurement": "IC50", "setting": "DHFR [3]", "value": 30, "unit": "nM"},
      {"measurement": "IC50", "setting": "[4]", "value": 6.5, "unit": "nM"},
      {"measurement": "IC50", "setting": "Cryptosporidium parvum", "value": 200, "unit": "nM"},
      {"measurement": "IC50", "setting": "Toxoplasma gondii", "value": 20, "unit": "nM"},
      {"measurement": "IC50", "setting": "P. falciparum", "value": 70, "unit": "nM"}
    ]},
    {"compound": "Cc1nn(C)c(C)c1NS(=O)(=O)c1c(Cl)cc(-c2ccnc(N3CCNCC3)c2)cc1Cl", "note": "[MMV688180]", "values": [
      {"measurement": "IC50", "setting": "[1]; Table 2, MMVPB compounds with known anti-kinetoplastid activity, read-out: IC50 ± SD T. b. b.", "value": 2.3, "unit": "nM"},
      {"measurement": "pIC50 T. b. b.", "setting": "[1]; Table 2, negative log of IC50 in molar", "value": 8.64},
      {"measurement": "IC50", "setting": "[1]; given in nM, read-out: IC50 against T. b. brucei", "value": 2.3, "unit": "nM"},
      {"measurement": "CC50", "setting": "Vero cells", "value": "> 100000", "unit": "nM"},
      {"measurement": "IC50", "setting": "[5]", "value": "< 130", "unit": "nM"},
      {"measurement": "IC50", "setting": "T. b. brucei", "value": 10, "unit": "nM"}
    ]},
    {"compound": "O=C1O[C@H]([C@@H](O)CO)C(O)=C1O", "note": "[ascorbic acid, reference compound]", "values": [
      {"measurement": "median reducing concentration (RC50)", "setting": "[6]", "value": 165, "unit": "µM"}
    ]}
  ]
}
